Source: PMC7763155, “Design and Characterisation of Inhibitory Peptides against Bleg1_2478, an Evolutionary Divergent B3 Metallo-β-lactamase” (Molecules, 2020)
Read-outs that look alike come from different tables or passages of the source. Blank lines part the entries; values can stand above or below the molecule they belong to. No end group written: not given here.

Key:
Bleg1_2478 [1] = molecular target: T1, Bleg1_2478 (Shouchella lehensis (Bacillus lehensis), UniProt A0A060M4R1); test: Isothermal titration calorimetry (ITC) with Bleg1_2478; assay type: binding, Bacillus lehensis G1
Protocol: ITC measurement was performed at 30 °C with nanoisothermal titration calorimetry, TA Instrument, USA at Malaysian Genome Institute. The peptides were dissolved in 20 mM sodium phosphate buffer (Na2HPO4-NaH2PO4) (pH 7.0). Bleg1_2478 protein sample, the selected peptide inhibitors and 20 mM sodium phosphate buffer (Na2HPO4-NaH2PO4) (pH 7.0) were firstly degassed by using Themovac Unit. The experiment was carried out at 30 °C with stirring speed of 300 rpm. The calorimetry data were subsequently analysed using NanoAnalyze Software v3.8.0. (New Castle, DE, USA)

Bleg1_2478 [2] = molecular target: T1, Bleg1_2478; conditions: in words; ref [22]; cited from earlier work
Source text: Biochemical characterization of purified recombinant Bleg1_2478 further confirmed that it was indeed capable of degrading β-lactam antibiotics, with ampicillin ...

Bleg1_2478 [3] = molecular target: T1, Bleg1_2478; test: Inhibitory assay of designed peptides against Bleg1_2478 (ampicillin hydrolysis); assay type: biochemical, Bacillus lehensis G1; conditions: pH 7.0, 30 °C, triplicates
Protocol: The ability of the peptides in inhibiting Bleg1_2478 was investigated via inhibitory assay. Firstly, enzymatic assay of purified Bleg1_2478 recombinant protein using ampicillin as the substrate was performed, serving as the positive control. The assay was carried out based on the method by. All assays were performed at 30 °C in total assay volume of 3 mL containing 20 mM sodium phosphate (Na2HPO4-NaH2PO4) (pH 7.0), 20 µg/mL BSA, 100 µM ZnSO4, 10 µM Bleg1_2478 and 100 µM ampicillin. The reaction was monitored by recording the absorbance at 235 nm every 1 min for a total duration of 6 min using a 50 Bio UV Visible Spectrophotometry. […] All assays were done in triplicates.

MBLs = conditions: in words; ref [20]; cited from earlier work
Source text: (§1) AMR among bacteria can be acquired through various means, i.e., through: (1) hydrolysis or inactivation of antibiotics by synthesizing enzymes; (2) redox process by exploiting the oxidation or reduction of the antibiotics; (3) modification of antibiotics by chemical substitution; (4) modification of the inhibition binding site in the target; (5) mutations on genes that encode the target or efflux pump that affect antibiotics uptake; (6) horizontal gene transfer where resistant genes are transferred from one pathogen to another via transduction, conjugation or ...

Class A SBLs = conditions: in words; ref [17],[18],[19]; cited from earlier work
Source text: as §1

[4] = molecular target: Bleg1_2478 recombinant protein (Bacillus lehensis G1); test: ITC; nano isothermal titration calorimetry (TA Instruments), 30 °C, 20 mM sodium phosphate buffer pH 7.0, stirring 300 rpm; which partner was in the cell and the concentrations are not stated
[5] = molecular target: Bleg1_2478 recombinant protein (Bacillus lehensis G1)
[6] = molecular target: Bleg1_2478 recombinant protein (Bacillus lehensis G1); remark: listed apart in the source
[7] = 10 µM peptide, 10 µM enzyme, 100 µM ampicillin
[8] = ITC, 30 °C, 20 mM sodium phosphate pH 7.0, 300 rpm, read-out: Dissociation constant, Kd

Molecule: CC1(C)S[C@@H]2[C@H](NC(=O)[C@H](N)c3ccccc3)C(=O)N2[C@H]1C(=O)O [Ampicillin, ampicillin, reference compound]
Kd (Bleg1_2478 [1]): 1470 nM
Entropy, ΔS (Bleg1_2478 [1]; ITC, 30 °C, 20 mM sodium phosphate pH 7.0): −248.00 J/mol·K
Association constant, Ka (Bleg1_2478 [1]; ITC, 30 °C, 20 mM sodium phosphate pH 7.0, 300 rpm): 680000 M⁻¹
Number of binding sites from stoichiometry (Bleg1_2478 [1]; ITC, in words): one binding site
Substrate preference (Bleg1_2478 [2]): preferred substrate

Molecule: RSWPWH [RSWPWH]
Inhibition of Bleg1_2478 (Bleg1_2478 [3]; 0.75 µM peptide): 12%
Inhibition of Bleg1_2478 (Bleg1_2478 [3]; [7]): 92%
Kd (Bleg1_2478 [1]; [8]): 497 nM
Fold increase in binding strength (Kd) (Bleg1_2478 [1]; ITC, compared to ampicillin): 34 fold

Molecule: O=C(O)[C@H]1/C(=C/CO)O[C@@H]2CC(=O)N21 [clavulanate]
Effectiveness against MBLs (MBLs): not
Effectiveness against Class A SBLs (Class A SBLs): effective

Molecule: C[C@]1(Cn2ccnn2)[C@H](C(=O)O)N2C(=O)C[C@H]2S1(=O)=O [tazobactam]
Effectiveness against MBLs (MBLs): not
Effectiveness against Class A SBLs (Class A SBLs): effective

Molecule: SSWWDR [SSWWDR]
Inhibition of Bleg1_2478 (Bleg1_2478 [3]; 0.25 µM peptide): 4%
Inhibition of Bleg1_2478 (Bleg1_2478 [3]; 0.50 µM peptide): 48%
Inhibition of Bleg1_2478 (Bleg1_2478 [3]; 0.75 µM peptide): 64%
Inhibition of Bleg1_2478 (Bleg1_2478 [3]; [7]): 88%
Inhibition of Bleg1_2478 (Bleg1_2478 [3]; 20 µM peptide, 10 µM enzyme, 100 µM ampicillin): 96%
Kd (Bleg1_2478 [1]; [8]): 992 nM
Fold increase in binding affinity (Ka) (Bleg1_2478 [1]; ITC, compared to ampicillin): 1.5 fold
Fold increase in binding strength (Kd) (Bleg1_2478 [1]; ITC, compared to ampicillin): 68 fold

Molecule: CC1(C)[C@H](C(=O)O)N2C(=O)C[C@H]2S1(=O)=O [sulbactam]
Effectiveness against MBLs (MBLs): not
Effectiveness against Class A SBLs (Class A SBLs): effective

Ka [4]: 2.01e+06 M⁻¹
Kd [4]: 497 nM
stoichiometry N [4]: 0.941
IC50 of inhibition of Bleg1 2478 enzymatic activity (hydrolysis of 100 µM ampicillin by 10 µM Bleg1 2478, absorbance at 235 nm, 30 °C, pH 7.0) [5]: 0.9 µM
percent inhibition of Bleg1 2478 activity on ampicillin at 0.75 to 20 µM peptide (12% at 0.75 µM, 54% at 0.90 µM, 68% at 1 µM, 92% at 10 µM, the same at 20 µM) [6]: 92%
Molecule: RSWPWH [RSWPWH inhibitory peptide]

Ka [4]: 1.01e+06 M⁻¹
Kd [4]: 992 nM
stoichiometry N [4]: 0.722
IC50 of inhibition of Bleg1 2478 enzymatic activity (hydrolysis of 100 µM ampicillin by 10 µM Bleg1 2478, absorbance at 235 nm, 30 °C, pH 7.0) [5]: 0.5 µM
percent inhibition of Bleg1 2478 activity on ampicillin at 0.25 to 20 µM peptide (4% at 0.25 µM, 48% at 0.50 µM, 64% at 0.75 µM, 76% at 1 µM, 88% at 10 µM, 96% at 20 µM) [6]: 96%
Molecule: SSWWDR [SSWWDR inhibitory peptide]
